In ChEMBL document CHEMBL3992567, “Discovery of Highly Potent 2-Sulfonyl-Pyrimidinyl Derivatives for Apoptosis Inhibition and Ischemia Treatment” (ACS Med Chem Lett, 2017):
The source made the active and inactive calls. The rule behind the calls is not given here. Residues, ends and D or L forms follow the SMILES beside them.

Legend:
[1] = target: T1, Succinate dehydrogenase [ubiquinone] iron-sulfur subunit, mitochondrial (Homo sapiens) (UniProt P21912); assay: Irreversible inhibition of SDHB in human U2OS cells over-expressing Bim assessed as inhibition of apoptosis preincubated for 1 hr followed by compound washout and doxycyclin addition to induce Bim protein expression measured after 24 hrs by Cell Titer-Glo assay; format: cell-based
T1 sequence (whole entry): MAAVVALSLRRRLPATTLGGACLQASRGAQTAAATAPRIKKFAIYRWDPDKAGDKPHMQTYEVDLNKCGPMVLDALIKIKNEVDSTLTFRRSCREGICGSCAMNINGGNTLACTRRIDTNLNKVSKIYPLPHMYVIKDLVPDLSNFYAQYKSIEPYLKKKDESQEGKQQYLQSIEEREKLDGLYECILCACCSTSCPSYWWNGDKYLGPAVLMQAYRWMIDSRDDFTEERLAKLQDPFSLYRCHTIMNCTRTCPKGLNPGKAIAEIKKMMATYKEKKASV

U2OS [2] = assay: Inhibition of mitochondrial-mediated apoptosis in human U2OS cells assessed as reduction in ROS level preincubated for 2 hrs followed by doxycyclin addition measured after 4 hrs by DCFH-DA dye based fluorescence assay; format: functional, cell-based
U2OS [3] = assay: Inhibition of mitochondrial-mediated apoptosis in human U2OS cells assessed as reduction in mitochondrial membrane potential loss at 1 uM preincubated for 1 hr followed by doxycyclin addition measured after 4 hrs by TMRM dye based confocal microscopic method; format: functional, cell-based
[4] = Glutathione reactivity of the compound in PBS buffer at 100 nM up to 35 mins by LC-MS/Ms analysis
[5] = Cysteine reactivity of the compound at 20 uM after 2 hrs by UPLC analysis
[6] = Glutathione reactivity of the compound at 20 uM after 2 hrs by UPLC analysis
[7] = Lysine reactivity of the compound at 20 uM after 2 hrs by UPLC analysis
U2OS [8] = assay: Inhibition of mitochondrial-mediated apoptosis in human U2OS cells assessed as reduction in mitochondrial membrane potential loss at 100 nM preincubated for 1 hr followed by doxycyclin addition measured after 4 hrs by TMRM dye based confocal microscopic method; format: functional, cell-based
Rattus norvegicus [9] = organism: Rattus norvegicus; assay: Protection against middle cerebral artery occlusion-induced transient focal cerebral ischemia in Sprague-Dawley rat assessed as reduction in brain infarct volume at 10 to 200 uM pretreated for 1 hr followed by reperfusion measured 24 hrs post MCAO by TTC staining based assay; format: functional
U2OS [10] = assay: Inhibition of mitochondrial-mediated apoptosis in human U2OS cells assessed as reduction in mitochondrial membrane potential loss at 3 nM preincubated for 1 hr followed by doxycyclin addition measured after 4 hrs by TMRM dye based confocal microscopic method; format: functional, cell-based
Rattus norvegicus [11] = organism: Rattus norvegicus; assay: Protection against middle cerebral artery occlusion-induced transient focal cerebral ischemia in Sprague-Dawley rat assessed as reduction in brain infarct volume at 50 to 200 uM pretreated for 1 hr followed by reperfusion measured 24 hrs post MCAO by TTC staining based assay; format: functional
U2OS [12] = assay: Inhibition of apoptosis in human U2OS cells over-expressing Bim assessed as mitochondrial cytochrome c release at 10 uM after 1 hr in presence of doxycyclin by confocal microscopic method; format: functional, cell-based
U2OS [13] = assay: Inhibition of mitochondrial-mediated apoptosis in human U2OS cells assessed as reduction in mitochondrial membrane potential loss at 10 uM preincubated for 1 hr followed by doxycyclin addition measured after 4 hrs by TMRM dye based confocal microscopic method; format: functional, cell-based
U2OS [14] = assay: Inhibition of apoptosis in human U2OS cells over-expressing Bim assessed as mitochondrial cytochrome c release at 20 uM after 1 hr in presence of doxycyclin by confocal microscopic method; format: functional, cell-based

COc1cccc(Cn2cc(-c3cc(C(F)(F)F)nc(S(C)(=O)=O)n3)ccc2=O)c1
inhibition [1]: Active
inhibition (U2OS [2]): Active

CCOC(=O)CCS(=O)(=O)c1nc(-c2cccs2)cc(C(F)(F)F)n1
inhibition [1]: Active

CS(=O)(=O)c1nc(-c2ccc(=O)n(Cc3ccc(Cl)cc3)c2)cc(C(F)(F)F)n1
inhibition [1]: Active
inhibition (U2OS [3]): Active
inhibition (U2OS [2]): Active

COc1ccc(Cn2cc(-c3cc(C(F)(F)F)nc(S(C)(=O)=O)n3)ccc2=O)cc1OC
Activity [4]: Active
Activity [5]: Active
Activity [6]: Active
Activity [7]: inactive
inhibition [1]: Active
inhibition (U2OS [8]): Active
inhibition (U2OS [2]): Active
Activity (Rattus norvegicus [9]): Active

COc1ccc(Cn2cc(-c3cc(C(F)(F)F)nc(S(=O)(=O)CCCC(=O)NC45CC6CC(CC(C6)C4)C5)n3)ccc2=O)cc1OC
Activity [4]: Active
Activity [5]: Active
Activity [6]: Active
Activity [7]: inactive
inhibition [1]: Active
inhibition (U2OS [10]): Active
Activity (Rattus norvegicus [11]): Active

COc1ccc(Cn2cc(-c3cc(C(F)(F)F)nc(S(C)(=O)=O)n3)ccc2=O)cc1
inhibition [1]: Active

CS(=O)(=O)c1nc(-c2cccs2)cc(C(F)(F)F)n1
Activity [5]: Active
Activity [6]: Active
Activity [7]: inactive
inhibition [1]: Active

Cc1ccc(O)c(NC(=O)CCCS(=O)(=O)c2nc(-c3cccs3)cc(C(F)(F)F)n2)c1
inhibition (U2OS [12]): Active

CS(=O)(=O)c1nc(-c2ccccc2)cc(C(F)(F)F)n1
inhibition [1]: Active

CS(=O)(=O)c1nc(-c2ccc(=O)n(Cc3cccc(Cl)c3)c2)cc(C(F)(F)F)n1
inhibition [1]: Active
inhibition (U2OS [3]): Active
inhibition (U2OS [2]): Active

CS(=O)(=O)c1nc(-c2ccc(=O)n(Cc3ccccc3)c2)cc(C(F)(F)F)n1
inhibition [1]: Active
inhibition (U2OS [13]): Active
inhibition (U2OS [2]): Active

CCCOc1cccc(Cn2cc(-c3cc(C(F)(F)F)nc(S(C)(=O)=O)n3)ccc2=O)c1
inhibition [1]: Active
inhibition (U2OS [2]): Active

Cc1cc(-c2cccs2)nc(S(C)(=O)=O)n1
Activity [5]: inactive
Activity [6]: inactive
Activity [7]: inactive

CC(C)[C@H](NC(=O)OCc1ccccc1)C(=O)N[C@@H](C)C(=O)N[C@@H](CC(=O)O)C(=O)O (HELM PEPTIDE1{[O=C(OCc1ccccc1)[*:2]].V.A.D}$$$$V2.0)
inhibition (U2OS [14]): inactive
inhibition (U2OS [13]): inactive

CS(=O)(=O)c1nc(-c2ccc(=O)n(Cc3ccccc3Cl)c2)cc(C(F)(F)F)n1
inhibition [1]: Active
